“Also recorded” adds a separate entry of the source. Read-outs that look alike come from different tables or passages of the source.
Test: Jugular vein plasma levels after intravenous administration in jugular vein cannulated, freely moving rats
Format: in vivo, Wistar ST rats
Settings: for Cmax: analyte HT, at 5 min after intravenous administration, read-out: C max of HT in plasma
Experimental: SPF Wistar ST rats (6 weeks of age, male, 180 ± 20 g of body weight) were purchased from Japan SLC Inc. (Hamamatsu, Japan). The rats were housed in an air-conditioned room at 22 ± 2°C under cycles of 12 hours dark and 12 hours light and given free access to a commercial diet and water for a week. The rats were then fasted for over 16 hours before the experiments. The present study was approved by the Animal Care and Use Committee at Kagawa University, and the rat treatment conformed to the Rules of Animal Experiments at Kagawa University. After fasting, the rats were cannulated with a polyethylene tube (PE-50; 0.58 mm I.D., 0.965 mm O.D.) into the jugular vein, portal vein, or bile duct under anesthesia with isoflurane inhalation using a WP-SAA01 (LMS Co., Ltd., Tokyo, Japan). A small hole was made in the vein or duct using pointed scissors and cannulated with the polyethylene tube. After inserting the tube, it was fixed at the edge of the vein or duct. The jugular vein and portal vein cannulas penetrated under the skin and were then tied at the back of the rats, and the bile duct cannula was tied at the abdomen of the rats. Bile duct-cannulated rats were then restrained in a Bollman cage (Natsume Seisakusho Co., Ltd., Tokyo, Japan). Before further experiments, the rats were allowed to recover from anesthesia. 3,4-[…] (300 mg/kg body weight; 936.51 μmol/kg) dissolved in 50% polyethylene glycol aqueous solution was administered orally via a stomach tube to the portal vein cannulated rats. Blood samples (450 μL) were then collected using a heparinized syringe attached to the cannula before administration and 5, 15, 30, 60, 120, and 240 min after administration. Urine was also collected before administration and 0 to 2 h and 2 to 4 h after administration. For intravenous administration, 3,4-[…] (10 mg/kg; 31.22 μmol/kg) was injected into the jugular vein, and blood (450 μL) was collected using a heparinized syringe before administration and 5, 15, 30, 60, 120, and 240 min after administration via the jugular vein cannula. The blood (450 μL) collected was immediately cooled on ice and centrifuged at 15,000 rpm for 5 min at 4°C to obtain over 200 μL plasma. Urine was also collected before administration and 0 to 2 h and 2 to 4 h after administration. Bile was collected via the bile duct cannula before administration and 0 to 2 h and 2 to 4 h after intravenous administration. The collected plasma, urine, and bile were immediately stored in an ice box until further analyses. HT (oral administration: 100 mg/kg; 648.66 μmol/kg, intravenous administration: 10 mg/kg; 64.87 μmol/kg) and Ole (oral administration: 300 mg/kg; 555.02 μmol/kg, intravenous administration: 10 mg/kg; 18.50 μmol/kg) were investigated using the same method as described above. Metabolites were deconjugated by using β-glucuronidase (500 U) and sulfatase (50 U) in 50 μL 625 mM MOPS (pH 6.8), which was added to 200 μL of plasma, urine, or bile. The mixture was incubated for 45 min at 37°C and subjected to extraction using QuEChERS [33]. […] Shimadzu, Kyoto, Japan) equipped with a Shim-pack XR-ODS column (3.0 mm I.D. × 100 mm; Shimadzu, Kyoto, Japan) at 40°C with a mobile phase of 0.5% TFA-1% acetonitrile aqueous solution (A) and 0.5% TFA-75% acetonitrile aqueous solution (B). The elution conditions are described as follows: isocratic elution of 0% B was maintained for 4.0 min; linear gradient 0 to 4% B, 4.0-4.5 min; linear gradient 4.0-16.0% B, 4.5-16.0 min; linear gradient 16.0-100% B, 16.0-25.0 min; isocratic elution of 100% B, 25.0-26.0 min; and linear gradient 100 to 0% B, 26.0-26.1 min, with a flow rate of 0.5 mL/min. Injection volume was 50 μL. All eluted peaks were detected at 279 nm with a diode array detector (SPD-M20A; Shimadzu, Kyoto, Japan). The absorption of 3,4-[…], and Ole was evaluated by dose-normalized 4 h area under the curve (AUC0→4 h/Dose) and C max/Dose values (Table 2). […]

[1] = after intravenous administration, 10 mg/kg

Other metabolites in plasma throughout the blood sampling (after intravenous administration of Ole, 10 mg/kg) | Time at which intact compound disappeared from the systemic circulation [1] | concentration at 5 min (male, Wistar ST, rat, plasma, after intravenous administration, 10 mg/kg, 18.50 μmol/kg, read-out: Ole detected in the plasma at 5 min) [µM] | Cmax (male, Wistar ST, rat, plasma, 10 mg/kg) [µM] | AUC0→4 h-i.v./Dosei.v. (analyte HT in jugular vein plasma after intravenous administration) [μM·min·kg/μmol] | Cmax (10 mg/kg) [µM] | AUC0→4 h-i.v./Dosei.v. (analyte HVA in jugular vein plasma after intravenous administration) [μM·min·kg/μmol] | AUC0→4 h-i.v./Dosei.v. (analyte HVAOH in jugular vein plasma after intravenous administration) [μM·min·kg/μmol] | Compound | Detection of intact 3,4-DHPEA-EDA in plasma and hematocytes (jugular vein, after intravenous administration, 10 mg/kg, 31.22 μmol/kg, 10 mg/kg)
could not be detected | ≤ 60 min | 502 |  |  |  |  |  | C/C=C1/[C@H](O[C@@H]2O[C@H](CO)[C@@H](O)[C@H](O)[C@H]2O)OC=C(C(=O)OC)[C@H]1CC(=O)OCCc1ccc(O)c(O)c1 [Oleuropein, reference compound] | 
 | about 15 min |  | 1740 |  |  |  |  | OCCc1ccc(O)c(O)c1 [Hydroxytyrosol, 2-(3,4-dihydroxyphenyl) ethyl alcohol, reference compound] | 
 |  |  |  | 259.2 | ~131 | 22.4 | 56.0 | CC=C(C=O)C(CC=O)CC(=O)OCCc1ccc(O)c(O)c1 (stereo not shown) [3,4-DHPEA-EDA, 3,4-dihydroxyphenylethyl elenolate dialdehydic form] | not detected; also recorded: not observed

Source: PMC4745926, “Absorption, Metabolism, and Excretion by Freely Moving Rats of 3,4-DHPEA-EDA and Related Polyphenols from Olive Fruits (Olea europaea)” (Journal of Nutrition and Metabolism, 2016)
